In brackets after ≈: the same amount, converted by molar mass. Numbered stars: 1 amine (or outer) side, 2 acyl side, 3 side chain; on linkers, the order of the positions; unused ones are H or OH. Square brackets hold non-standard residues; d marks the D form. Peptide text beside a SMILES is read from it. ξ: configuration not given here. NH(CH2)9CO = O=C(CCCCCCCCCN[*:1])[*:2]; 2Nal = N[C@@H](Cc1ccc2ccccc2c1)C(=O)O; Cha = N[C@@H](CC1CCCCC1)C(=O)O; ξAoc(2) = CCCCCCC(N)C(=O)O; ξNle = CCCCC(N)C(=O)O; Aoc = NCCCCCCCC(=O)O; Ahx = NCCCCCC(=O)O
Legend:
Staphylococcus aureus = test: Antimicrobial activity against methicillin-resistant Staphylococcus aureus ATCC 33591 by tube dilution method; format: functional
Escherichia coli = test: Antimicrobial activity against Escherichia coli ATCC 25922 by tube dilution method; format: functional
Enterococcus faecium = test: Antimicrobial activity against vancomycin-resistant Enterococcus faecium ATCC 700221 by tube dilution method; format: functional
Klebsiella pneumoniae = test: Antimicrobial activity against multidrug-resistant Klebsiella pneumoniae ATCC 700603 by tube dilution method; format: functional
Pseudomonas aeruginosa = test: Antimicrobial activity against Pseudomonas aeruginosa ATCC 27853 by tube dilution method; format: functional
Candida albicans = test: Antifungal activity against Candida albicans ATCC 200955 by tube dilution method; format: functional
Acinetobacter baumannii = test: Antimicrobial activity against multidrug-resistant Acinetobacter baumannii ATCC BAA-1605 by tube dilution method; format: functional
[1] = Toxicity in human erythrocytes assessed as hemolysis after 1 hr; format: cell-based, Erythrocyte
[2] = Toxicity in human erythrocytes assessed as hemolysis at 150 uM after 1 hr; format: cell-based, Erythrocyte; settings: read-out: Activity

Compound | MIC (Staphylococcus aureus) | MIC (Escherichia coli) | MIC (Enterococcus faecium) | MIC (Klebsiella pneumoniae) | MIC (Pseudomonas aeruginosa) | MIC (Candida albicans) | MIC (Acinetobacter baumannii) | EC50 at 1 hr [1] | hemolysis at 1 h, 150 µM [2]
CC(C)C[C@@H]1NC(=O)CNC(=O)[C@H](Cc2ccc3ccccc3c2)NC(=O)[C@H](CCCCN)NC(=O)[C@H](CC(C)C)NC(=O)[C@H](Cc2ccc3ccccc3c2)NC(=O)[C@H](CCCNC(=N)N)NC1=O (cyclo([2Nal]GLR[2Nal]LK)) | 32 µM (≈ 30.8 µg/mL) | 128 µM (≈ 123 µg/mL) | 16 µM (≈ 15.4 µg/mL) | > 128 µM | 128 µM (≈ 123 µg/mL) | 32 µM (≈ 30.8 µg/mL) | > 128 µM | > 150 µM | 19%
CC(C)C[C@@H]1NC(=O)CNC(=O)[C@H](Cc2ccc3ccccc3c2)NC(=O)[C@H](CCCNC(=N)N)NC(=O)[C@@H]2CCCN2C(=O)[C@H](Cc2ccc3ccccc3c2)NC(=O)[C@H](CCCNC(=N)N)NC1=O (cyclo([2Nal]GLR[2Nal]PR)) | 64 µM (≈ 62.3 µg/mL) | > 128 µM | 32 µM (≈ 31.2 µg/mL) | > 128 µM | > 128 µM | 128 µM (≈ 125 µg/mL) | > 128 µM | > 150 µM | < 8%
CC(C)C[C@@H]1NC(=O)CNC(=O)[C@H](Cc2ccc3ccccc3c2)NC(=O)[C@H](CCCNC(=N)N)NC(=O)[C@H]([C@@H](C)O)NC(=O)[C@H](Cc2ccc3ccccc3c2)NC(=O)[C@H](CCCNC(=N)N)NC1=O (cyclo([2Nal]GLR[2Nal]TR)) | 128 µM (≈ 125 µg/mL) | 128 µM (≈ 125 µg/mL) | 128 µM (≈ 125 µg/mL) | > 128 µM | > 128 µM | 128 µM (≈ 125 µg/mL) | > 128 µM | > 150 µM | < 8%
CCCCC1NC(=O)[C@H](Cc2ccc3ccccc3c2)NC(=O)[C@H](CCCNC(=N)N)NC(=O)[C@H](CC(C)C)NC(=O)CNC(=O)[C@H](Cc2ccc3ccccc3c2)NC(=O)[C@H](CCCNC(=N)N)NC1=O (stereo not given in full) (cyclo([2Nal]GLR[2Nal][ξNle]R)) | 32 µM (≈ 31.7 µg/mL) | > 128 µM | 16 µM (≈ 15.8 µg/mL) | > 128 µM | > 128 µM | > 128 µM | > 128 µM | > 150 µM | 35%
CC(C)C[C@@H]1NC(=O)[C@H](Cc2ccc3ccccc3c2)NC(=O)[C@H](CCCNC(=N)N)NC(=O)[C@@H]2CCCN2C(=O)CNC(=O)[C@H](Cc2ccc3ccccc3c2)NC(=O)[C@H](CCCNC(=N)N)NC1=O (cyclo([2Nal]GPR[2Nal]LR)) | 64 µM (≈ 62.3 µg/mL) | > 128 µM | 16 µM (≈ 15.6 µg/mL) | > 128 µM | 128 µM (≈ 125 µg/mL) | 64 µM (≈ 62.3 µg/mL) | > 128 µM | > 150 µM | < 8%
CC(C)C[C@@H]1NC(=O)[C@H](Cc2ccc3ccccc3c2)NC(=O)[C@H](CCCNC(=N)N)NC(=O)[C@H](CCC(N)=O)NC(=O)CNC(=O)[C@H](Cc2ccc3ccccc3c2)NC(=O)[C@H](CCCNC(=N)N)NC1=O (cyclo([2Nal]GQR[2Nal]LR)) | 128 µM (≈ 129 µg/mL) | > 128 µM | 16 µM (≈ 16.1 µg/mL) | > 128 µM | > 128 µM | 128 µM (≈ 129 µg/mL) | > 128 µM | > 150 µM | < 8%
CC(C)C[C@@H]1NC(=O)[C@H](Cc2ccc3ccccc3c2)NC(=O)[C@H](CCCNC(=N)N)NC(=O)[C@H]([C@@H](C)O)NC(=O)CNC(=O)[C@H](Cc2ccc3ccccc3c2)NC(=O)[C@H](CCCNC(=N)N)NC1=O (cyclo([2Nal]GTR[2Nal]LR)) | 32 µM (≈ 31.3 µg/mL) | > 128 µM | 64 µM (≈ 62.6 µg/mL) | > 128 µM | > 128 µM | 128 µM (≈ 125 µg/mL) | > 128 µM | > 150 µM | < 8%
CC(C)C[C@@H]1NC(=O)[C@H](Cc2ccc3ccccc3c2)NC(=O)[C@H](CCCNC(=N)N)NC(=O)[C@H](CC2CCCCC2)NC(=O)CNC(=O)[C@H](Cc2ccc3ccccc3c2)NC(=O)[C@H](CCCNC(=N)N)NC1=O (cyclo([2Nal]G[Cha]R[2Nal]LR)) | 16 µM (≈ 16.5 µg/mL) | 32 µM (≈ 33 µg/mL) | 16 µM (≈ 16.5 µg/mL) | 128 µM (≈ 132 µg/mL) | 128 µM (≈ 132 µg/mL) | 32 µM (≈ 33 µg/mL) | 64 µM (≈ 65.9 µg/mL) | 28 µM | 99%
CCCCCCC1NC(=O)CNC(=O)[C@H](Cc2ccc3ccccc3c2)NC(=O)[C@H](CCCNC(=N)N)NC(=O)[C@H](CC(C)C)NC(=O)[C@H](Cc2ccc3ccccc3c2)NC(=O)[C@H](CCCNC(=N)N)NC1=O (stereo not given in full) (cyclo([2Nal]G[ξAoc(2)]R[2Nal]LR)) | 32 µM (≈ 32.6 µg/mL) | 32 µM (≈ 32.6 µg/mL) | 32 µM (≈ 32.6 µg/mL) | 64 µM (≈ 65.2 µg/mL) | 128 µM (≈ 130 µg/mL) | 64 µM (≈ 65.2 µg/mL) | 128 µM (≈ 130 µg/mL) | 55 µM | 100%
CC(C)C[C@@H]1NC(=O)CNC(=O)[C@H](Cc2ccc(O)cc2)NC(=O)[C@H](CCCNC(=N)N)NC(=O)[C@H](CC(C)C)NC(=O)[C@H](Cc2ccc3ccccc3c2)NC(=O)[C@H](CCCNC(=N)N)NC1=O (cyclo([2Nal]LRYGLR)) | 128 µM (≈ 122 µg/mL) | > 128 µM | 64 µM (≈ 61.2 µg/mL) | > 128 µM | > 128 µM | > 128 µM | > 128 µM | > 150 µM | 19%
CC(C)C[C@@H]1NC(=O)CCCCCCCCCNC(=O)[C@H](Cc2ccc3ccccc3c2)NC(=O)[C@H](CCCNC(=N)N)NC(=O)[C@H](CC(C)C)NC(=O)[C@H](Cc2ccc3ccccc3c2)NC(=O)[C@H](CCCNC(=N)N)NC1=O (cyclo([2Nal]LR[2Nal][NH(CH2)9CO]LR)) | 4 µM (≈ 4.41 µg/mL) | 64 µM (≈ 70.6 µg/mL) | 4 µM (≈ 4.41 µg/mL) | > 64 µM | > 64 µM | 16 µM (≈ 17.6 µg/mL) | 16 µM (≈ 17.6 µg/mL) | 15 µM | 100%
CC(C)C[C@@H]1NC(=O)CCCCCNC(=O)[C@H](Cc2ccc3ccccc3c2)NC(=O)[C@H](CCCNC(=N)N)NC(=O)[C@H](CC(C)C)NC(=O)[C@H](Cc2ccc3ccccc3c2)NC(=O)[C@H](CCCNC(=N)N)NC1=O (cyclo([2Nal][Ahx]LR[2Nal]LR)) | 8 µM (≈ 8.37 µg/mL) | 32 µM (≈ 33.5 µg/mL) | 4 µM (≈ 4.19 µg/mL) | 128 µM (≈ 134 µg/mL) | 64 µM (≈ 67 µg/mL) | 16 µM (≈ 16.7 µg/mL) | 64 µM (≈ 67 µg/mL) | 115 µM | 75%
CC(C)C[C@@H]1NC(=O)CCCCCCCNC(=O)[C@H](Cc2ccc3ccccc3c2)NC(=O)[C@H](CCCNC(=N)N)NC(=O)[C@H](CC(C)C)NC(=O)[C@H](Cc2ccc3ccccc3c2)NC(=O)[C@H](CCCNC(=N)N)NC1=O (cyclo([2Nal][Aoc]LR[2Nal]LR)) | 2 µM (≈ 2.15 µg/mL) | 16 µM (≈ 17.2 µg/mL) | 2 µM (≈ 2.15 µg/mL) | 16 µM (≈ 17.2 µg/mL) | 32 µM (≈ 34.4 µg/mL) | 4 µM (≈ 4.3 µg/mL) | 8 µM (≈ 8.6 µg/mL) | 22 µM | 100%
CC[C@H](C)[C@@H]1NC(=O)[C@H](Cc2ccc3ccccc3c2)NC(=O)[C@H](CCCNC(=N)N)NC(=O)[C@H]([C@@H](C)O)NC(=O)CCCCCCCNC(=O)[C@H](Cc2ccc3ccccc3c2)NC(=O)[C@H](CCCNC(=N)N)NC1=O (cyclo([2Nal][Aoc]TR[2Nal]IR)) | 32 µM (≈ 34 µg/mL) | 128 µM (≈ 136 µg/mL) | 16 µM (≈ 17 µg/mL) | > 128 µM | > 128 µM | 64 µM (≈ 68 µg/mL) | 128 µM (≈ 136 µg/mL) | > 150 µM | 10%
CC(C)C[C@@H]1NC(=O)CNC(=O)[C@H](Cc2ccc3ccccc3c2)NC(=O)[C@H](CCCNC(=N)N)NC(=O)[C@H](CC2CCCCC2)NC(=O)[C@H](Cc2ccc3ccccc3c2)NC(=O)[C@H](CCCNC(=N)N)NC1=O (cyclo([2Nal][Cha]R[2Nal]GLR)) | 8 µM (≈ 8.24 µg/mL) | 16 µM (≈ 16.5 µg/mL) | 16 µM (≈ 16.5 µg/mL) | 64 µM (≈ 65.9 µg/mL) | 128 µM (≈ 132 µg/mL) | 16 µM (≈ 16.5 µg/mL) | 64 µM (≈ 65.9 µg/mL) | 60 µM | 96%

Source: ChEMBL document CHEMBL4000149, “The effect of glycine replacement with flexible ω-amino acids on the antimicrobial and haemolytic activity of an amphipathic cyclic heptapeptide” (Eur J Med Chem, 2015)
